We go through 16 compounds from US20060035932A1, “N-aryl piperidine compounds” (Propharmacon, Inc., priority 2004, published 2006).

Where only a bound is given, the exact number is not on record here.

In one test the target is T1, binding of recombinant macrophage-tropic strain JR-FL gp120 to immobilized recombinant CD4 (Homo sapiens, UniProt P01730).
T1 construct: human CD4 (comprised of amino acids 1-371); made in house; host or cells: Sf9 insect cells, baculovirus vector pAcGP67
The test is described as follows: gp120/CD4 binding assay (DELFIA competition assay, europium-labeled gp120, immobilized CD4). Set-up: species or system HIV (strain JR-FL) gp120; human CD4. The note with it: control substances used in optimizing the binding assay. An excerpt: Coding sequences for gp120 (macrophage-tropic strain JR-FL) and human CD4 (comprised of amino acids 1-371) were sub-cloned into the commercial baculovirus expression vector pAcGP67 (Pharmingen, San Diego, Calif.). The recombinant vectors were then transfected into Sf9 insect cell monolayers using the Baculogold™ transfection system. Clones were isolated by the method of limited dilution.
For large-scale production, cell culture was scaled up in 8-liter spinner flasks of Sf9 cells adapted to serum-free growth conditions, then infected by baculovirus using an MOI of 5 and the cell supernatant was harvested 72 hours later. The yields of recombinant protein expressed for both proteins were similar; 2-5 μg/ml (micrograms per milliliter). Recombinant CD4 protein was immunopurified using an affinity-column of immobilized Anti-CD4 D1 mAb Leu3a (Dalgleish, A. G., et al., Lancet, 2:1047-1050 1987) and gp120 protein was immunopurified using a resin coupled with Propharmacon monoclonal antibody PPC3G6 produced in-house (mouse IgG2) against Sf9-produced gp120. Protein purity and molecular weight were assessed using reduced and non-reduced SDS PAGE.
The identification of inhibitors was carried out by a competition assay utilizing recombinant macrophage-tropic strain JR-FL gp120, which competes with a prospective inhibitor to bind to immobilized recombinant CD4. The amount of gp12O binding to CD4 was quantitated by DELFIA “Dissociation Enhanced Lanthanide Fluoroimmunoassay” (Paterson, N., et al., Ann. Clin Biochem., 22, 606-611, 1985), having previously labeled the gp120 with a commercial europium chelate (Wallac Oy, Turku, Finland). The final readout uses time-resolved fluorescence to quantitate the amount of dissociated europium metal present. Binding of labeled gp120 was saturable and yielded an IC50 of 3 nM, which approximates literature values (Lasky, L. A., et al., Cell, 50, 975-985). In addition, the binding of gp120 was inhibited by Leu3a with an IC50 of 2 μg/ml. […] The assay is optionally adapted to 384-well format for screening purposes.
With `CC(C)CCC[C@@H](C)[C@H]1CC[C@H]2[C@@H]3CC[C@H]4C[C@@H](CCC=C(c5cc(Cl)c(O)c(C(=O)O)c5)c5cc(Cl)c(O)c(C(=O)O)c5)CC[C@]4(C)[C@H]3CC[C@]12C` [cosalane, reference compound], the “IC50, inhibition of binding of gp120 to immobilized CD4” value came to 4.3 µg/mL.

Still in this test, the particulars now being: control substances used in optimizing the binding assay; read-out: IC50, inhibition of binding of gp120 to immobilized CD4 (converted).
For `O=C(O)C1=CC(=C(c2ccc(O)c(C(=O)O)c2)c2ccc(O)c(C(=O)O)c2)C=CC1=O` [aurintricarboxylic acid, reference compound], the IC50 was 1.18 µM.

The same test, now with this note: gp120/CD4 binding assay; read-out: Activity (IC50 level in the gp120/CD4 binding assay).
For `O=C(O)[C@H](Cc1ccccc1)NS(=O)(=O)c1cnc(N2CCC(CCCCCC3CCN(S(=O)(=O)c4cc(Br)c(Cl)s4)CC3)CC2)c(Br)c1`, the IC50 is below 1 µM.

For `O=C(O)CN(CCc1ccc(F)cc1)S(=O)(=O)c1cnc(N2CCC(CCCC3CCN(S(=O)(=O)c4cc(Br)c(Cl)s4)CC3)CC2)c(Br)c1`, the IC50 was below 1 µM. For the compound `O=C(NCCCCC(NS(=O)(=O)c1cnc(N2CCC(CCCC3CCN(S(=O)(=O)c4cc(Br)c(Cl)s4)CC3)CC2)c(Br)c1)C(=O)O)OCc1ccccc1Cl` (stereo not shown), the IC50 is below 1 µM. Consider `O=C(O)[C@H](Cc1ccccc1)NS(=O)(=O)c1cnc(N2CCC(CCCCCCCC3CCN(S(=O)(=O)c4cc(Br)c(Cl)s4)CC3)CC2)c(Br)c1`, for which the IC50 is below 1 µM.

For the compound `O=C(O)CC1Cc2ccccc2CN1S(=O)(=O)c1cnc(N2CCC(CCCCC3CCN(S(=O)(=O)c4cc(Br)c(Cl)s4)CC3)CC2)c(Br)c1` (stereo not shown), the IC50 is below 1 µM. Still for that read-out and setting: the figure for `O=C(O)C1(NS(=O)(=O)c2cnc(N3CCC(CCCC4CCN(S(=O)(=O)c5cc(Br)c(Cl)s5)CC4)CC3)c(Br)c2)CCCCC1` is below 1 µM. Same read-out and setting: the result for `O=C(O)[C@H](Cc1ccccc1)NS(=O)(=O)c1cnc(N2CCC(CCCCC3CCN(S(=O)(=O)c4cc(Br)c(Cl)s4)CC3)CC2)c(C(F)(F)F)c1` reads 1 to 10 µM; that for `O=C(O)C[C@@H]1CCCN1S(=O)(=O)c1cnc(N2CCC(CCCC3CCN(S(=O)(=O)c4cc(Br)c(Cl)s4)CC3)CC2)c(Br)c1`, 1 to 10 µM; that for `O=C(O)[C@H](Cc1ccc(Cl)cc1)NS(=O)(=O)c1cnc(N2CCC(CCCCCC3CCN(S(=O)(=O)c4cc(Br)c(Cl)s4)CC3)CC2)c(Br)c1`, 1 to 10 µM. Consider `O=C(O)[C@H](Cc1ccccc1)NS(=O)(=O)c1ccc(N2CCC(CCCC3CCN(S(=O)(=O)c4cc(Br)c(Cl)s4)CC3)CC2)c(Cl)c1`, for which the IC50 was 1 to 10 µM.

On to `CSCC[C@H](NS(=O)(=O)c1ccc(N2CCC(CCCC3CCN(S(=O)(=O)c4ccc(C(C)(C)C)cc4)CC3)CC2)c(Cl)c1)C(=O)O`, for which the IC50 lay within 1 to 10 µM. Take `O=C(O)[C@@H]1CC[C@H](NS(=O)(=O)c2ccc(N3CCC(CCCC4CCN(S(=O)(=O)c5ccc(F)cc5)CC4)CC3)c(Cl)c2)C1`: the IC50 is above 10 µM.

In the case of `O=C(NO)[C@H]1CC[C@H](NS(=O)(=O)c2ccc(N3CCC(CCCC4CCN(S(=O)(=O)c5cc(Br)c(Cl)s5)CC4)CC3)c(Cl)c2)C1`, the IC50 was above 10 µM. For the compound `O=S(=O)(c1cnc(N2CCC(CCCC3CCN(S(=O)(=O)c4c(Cl)ccc5nonc45)CC3)CC2)c(Br)c1)N1CCCNCC1`, the IC50 was above 10 µM.
